Data from US9956199B2, “Chromane-like cyclic prenylflavonoids for the medical intervention in neurological disorders” (priority 2011, dated 2018).
“Also recorded” adds a separate entry of the source.

Key:
[1] = test system: chicken dorsal root ganglion neurons; assay: neurite outgrowth in primary chicken dorsal root ganglion neurons; assay type: cell-based; conditions: E8 and E15 DRG neurons, 12 to 24 hours; compound 1a 10 μM, NGF 20 ng/ml; GAP-43 staining
Protocol: Dorsal root ganglion neurons comprise of an axon with two branches and are a good model for neuronal differentiation. Embryonic day 8 and 15 chicken dorsal root ganglions were examined for immunochemical staining with GAP43 after incubation with NGF 20 ng/ml and compound 1a (ENDF1) 10 μM to analyze whether compound 1a alone or in combination with the nerve growth factor enhances neurite outgrowth and branching.
Embryonic day (E) 8 and E15 chicken Dorsal Root Ganglions (DRGs) were prepared as described in: Aigner, 1993; Aigner, 1995. Briefly, foetuses were taken out of the egg, decapitated and the DRGs were targeted from the ventral side. The 10 lumbar region DRGs per foetus were dissected, and a total of 100 DRGs were collected in 10 ml DPBS in a 15 ml Falcon tube. DRGs were centrifuged 120×g for 3 min and then enzymatically treated with 1 ml trypsin 0.5 mg/ml+EDTA 0.22 mg/ml (PAA, Pasching, Austria) for 15 min. Then, 9 ml of DMEM 10% FCS were added to inactivate the trypsin and DRGs were centrifuged 120×g for 5 min. DRGs were resuspended and washed with 5 ml of DMEM 10% FCS, pipetted up and down to dissociate them, centrifuged, resuspended in 5 ml of DMEM 10% FCS and transferred into a 60 mm diameter cell culture dish. […]

PC12 cells [2] = assay: PC12 cobalt-chloride stress test, Caspase 3/7 activation; assay type: cell-based, rat; conditions: CoCl2 300 μM, 24 hours; compounds 10 μM, NGF 50 ng/ml; FIG. 7A
Protocol: (§1) For the neuroprotection assay PC12 cells were stressed with cobalt chloride 300 μM for 24 hours and the activity of Caspase 3/7 and LDH release were measured. NGF 50 ng/ml was used as a positive control for Caspase 3/7 activity and NGF 100 ng/ml was used as a positive control for LDH release.
(§2) For the PC12-CoCl2-Assay PC12 cells were used (ATCC: CRL-1721 ™). These cells were growing in RPMI supplemented with 10% Horse Serum (heat inactivated) (Sigma Aldrich, Taufkirchen, Germany), 5% Fetal Bovine Serum (Lonza, Wuppertal, Germany), 2.5% Penicillin/Streptomycin and Glutamine (PAA, Pasching, Austria) as adherent cultures when the plates are coated with Poly-L-ornithine ([…] in water) for at least one hour at 37° C. For passaging PC12-cells were resuspended with Accutase (PAA, Pasching, Austria) for 10 minutes at 37° C. once a week.
(§3) For all experiments cells were plated (quadruplicates) on Poly-L-ornithine-coated 96-well plates at a density of 10^4 cells per well. For Caspase 3/7-measurement cells were seeded in a white 96-well-plate to detect luminescence. As positive-control for neuroprotection Nerve Growth Factor (NGF) (50 ng/ml and 100 ng/ml) was used. To induce hypoxia CoCl2 (300 μM) was added to the cells after 20-24 hours. The control-treatment was compound 1a (ENDF1), compound 1b (ENDF3), compound 3a (ENDF2), ENDF4 or Osajin in the concentrations 1 μM and 10 μM in proliferation-media without CoCl2.
For Caspase 3/7-activation Caspase 3/7 substrate was added to the cells in an equal amount 22 hours after stimulation. Plates are incubated for 2 hours at room temperature in the dark, luminescence was measured 24 hours after stimulation and the blank-values are subtracted.

PC12 cells [3] = assay: PC12 cobalt-chloride stress test, LDH release; assay type: cell-based, rat; conditions: CoCl2 300 μM, 24 hours; compounds 10 μM, NGF 100 ng/ml; FIG. 7B
Protocol: as §1, §2, §3
For LDH-release cells were centrifuged at 1050 rpm for 5 minutes. After 24 hours of stimulation, the supernatant was mixed in an equal amount with LDH-substrate and incubated in the dark for 30 minutes. Afterwards stop solution was added and absorbance was measured at 490 nm, the blank-values are subtracted.

NGF: Nerve Growth Factor, positive control for neuroprotection and neurite outgrowth
neurite extension [1]: strongly promote neurite extension; also recorded: potent enhancer of neuronal differentiation | protection from CoCl2 induced Caspase 3/7 activity (PC12 cells [2]): partially protected; also recorded: inhibits CoCl2 induced Caspase 3/7 activity | protection from CoCl2 induced LDH release (cell death) (PC12 cells [3]): partially protected; also recorded: slightly decrease the LDH release
